# Test system: HIV-IIIb (MT-4 cells)
# Assay: Test A: Antiviral Assays in MT4 Cells
# Format: cell-based
# Conditions: Human immunodeficiency virus 1, IIIB, MT4, 120 h
# Experimental: Test A: Antiviral Assays in MT4 Cells
# For the antiviral assay utilizing MT-4 cells, 0.4 μL of […] test concentration of 3-fold serially diluted compound in DMSO was added to 40 μL of cell growth medium (RPMI 1640, 10% FBS, 1% penicilline/Streptomycine, 1% L-Glutamine, 1% HEPES) in each well of 384-well assay plates (10 concentrations) in quadruplicate.
# 1 mL aliquots of 2×10e6 MT-4 cells are pre-infected for 1 and 3 hrs respectively, @37° C. with 25 uL (MT4) or of either cell growth medium (mock-infected) or a fresh 1:250 dilution of an HIV-IIIb concentrated ABI stock (0.004 m.o.i. for MT4 cells). Infected and uninfected cells are diluted in cell growth medium and 35 uL of 2000 (for MT4) cells is added to each well of the assay plates.
# Assay plates were then incubated in a 37° C. incubator. After 5 days of incubation, 25 μl of 2× concentrated CellTiter-Glo™ Reagent (catalog # G7573, Promega Biosciences, Inc., Madison, Wis.) was added to each well of the assay plate. Cell lysis was carried out by incubating at room temperature for 2-3 min and then chemiluminescence was read using the Envision reader (PerkinElmer). […]
row,SMILES,EC50 [nM]
1,"Cc1cc2nc(N(C)C)sc2c(-c2ccc3c4c(ccnc24)CCO3)c1[C@H](OC(C)(C)C)C(=O)O (atropisomer, axis not shown) [Compound 43, (S)-2-tert-butoxy-2-((R)-7-(2,3-dihydropyrano[4,3,2-de]quinolin-7-yl)-2-(dimethylamino)-5-methylbenzo[d]thiazol-6-yl)acetic acid]",5090

# Same assay, conditions: Human immunodeficiency virus 1, IIIB, MT4, 120 h, MT-4 cells infected with HIV-IIIb (0.004 m.o.i.), 5 days incubation, CellTiter-Glo readout; read-out: EC50
row,SMILES,EC50 [nM]
1,"Cc1cc2nc(C(=O)O)sc2c(-c2ccc3c4c(ccnc24)CCO3)c1[C@H](OC(C)(C)C)C(=O)O (atropisomer, axis not shown) [Compound 41]",923
2,"CCN(C)c1nc2cc(C)c([C@H](OC(C)(C)C)C(=O)O)c(-c3ccc4c5c(ccnc35)CCO4)c2s1 (atropisomer, axis not shown) [Compound 44, (S)-2-tert-butoxy-2-((S)-7-(2,3-dihydropyrano[4,3,2-de]quinolin-7-yl)-2-(ethyl(methyl)amino)-5-methylbenzo[d]thiazol-6-yl)acetic acid]",18.7
3,"CCN(CC)c1nc2cc(C)c([C@H](OC(C)(C)C)C(=O)O)c(-c3ccc4c5c(ccnc35)CCO4)c2s1 (atropisomer, axis not shown) [Compound 45, (S)-2-tert-butoxy-2-((S)-2-(diethylamino)-7-(2,3-dihydropyrano[4,3,2-de]quinolin-7-yl)-5-methylbenzo[d]thiazol-6-yl)acetic acid]",67

# Same assay, conditions: MT-4 cells infected with HIV-IIIb (0.004 m.o.i.), 5 days incubation, CellTiter-Glo readout; read-out: EC50
row,SMILES,EC50 [nM]
1,"Cc1cc2nc(N(C)C(C)C)sc2c(-c2ccc3c4c(ccnc24)CCO3)c1[C@H](OC(C)(C)C)C(=O)O (atropisomer, axis not shown) [Compound 46, (S)-2-tert-butoxy-2-((S)-7-(2,3-dihydropyrano[4,3,2-de]quinolin-7-yl)-2-(isopropyl(methyl)amino)-5-methylbenzo[d]thiazol-6-yl)acetic acid]",16.8
2,"Cc1cc2nc(N(C)C(C)C)sc2c(-c2ccc3c4c(ccnc24)CCO3)c1[C@H](OC(C)(C)C)C(=O)O (atropisomer, axis not shown) [Compound 47, (S)-2-tert-butoxy-2-((R)-7-(2,3-dihydropyrano[4,3,2-de]quinolin-7-yl)-2-(isopropyl(methyl)amino)-5-methylbenzo[d]thiazol-6-yl)acetic acid]",26500
3,"Cc1cc2nc(N(C)CC(C)C)sc2c(-c2ccc3c4c(ccnc24)CCO3)c1[C@H](OC(C)(C)C)C(=O)O (atropisomer, axis not shown) [Compound 48, (S)-2-tert-butoxy-2-((S)-7-(2,3-dihydropyrano[4,3,2-de]quinolin-7-yl)-2-(isobutyl(methyl)amino)-5-methylbenzo[d]thiazol-6-yl)acetic acid]",67
4,"Cc1cc2nc(N(C)CC(C)C)sc2c(-c2ccc3c4c(ccnc24)CCO3)c1[C@H](OC(C)(C)C)C(=O)O (atropisomer, axis not shown) [Compound 49, (S)-2-tert-butoxy-2-((R)-7-(2,3-dihydropyrano[4,3,2-de]quinolin-7-yl)-2-(isobutyl(methyl)amino)-5-methylbenzo[d]thiazol-6-yl)acetic acid]",13300
5,"Cc1cc2nc(N(C)CC3OCCO3)sc2c(-c2ccc3c4c(ccnc24)CCO3)c1[C@H](OC(C)(C)C)C(=O)O (atropisomer, axis not shown) [Compound 59, (S)-2-((S)-2-(((1,3-dioxolan-2-yl)methyl)(methyl)amino)-7-(2,3-dihydropyrano[4,3,2-de]quinolin-7-yl)-5-methylbenzo[d]thiazol-6-yl)-2-tert-butoxyacetic acid]",149
6,"Cc1cc2nc(N(C)CC3OCCO3)sc2c(-c2ccc3c4c(ccnc24)CCO3)c1[C@H](OC(C)(C)C)C(=O)O (atropisomer, axis not shown) [Compound 60, (S)-2-((R)-2-(((1,3-dioxolan-2-yl)methyl)(methyl)amino)-7-(2,3-dihydropyrano[4,3,2-de]quinolin-7-yl)-5-methylbenzo[d]thiazol-6-yl)-2-tert-butoxyacetic acid]",34500

# Source: US9879023B2, “Therapeutic compounds” (Gilead Sciences, Inc., priority 2011, dated 2018)
